Drawing on US9421209B2, “Kinase modulators” (Rhizen Pharmaceuticals SA, priority 2009, dated 2016), this text covers inhibition, IC50 and melting point for 18 molecules.

The target of one data set is P110 δ/Pi3K δ (Homo sapiens, UniProt O00329). The experiment in a line: Fluorescent (HTRF) determination of PI3K enzyme activity, δ isoform. Further details: inhibition: dose or concentration left out as unconfirmed. Format: biochemical. In short, it runs like this: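 IC50 fitted from percent inhibition relative to blank and enzyme-only wells. Human PI3Kδ converts PIP2 to PIP3 after addition of 400 μM ATP solution, 30 min at room temperature. Product read by time-resolved FRET after stop and 6–18 h dark incubation with detection reagents.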
Sequence of P110 δ/Pi3K δ (O00329 whole entry, canonical isoform): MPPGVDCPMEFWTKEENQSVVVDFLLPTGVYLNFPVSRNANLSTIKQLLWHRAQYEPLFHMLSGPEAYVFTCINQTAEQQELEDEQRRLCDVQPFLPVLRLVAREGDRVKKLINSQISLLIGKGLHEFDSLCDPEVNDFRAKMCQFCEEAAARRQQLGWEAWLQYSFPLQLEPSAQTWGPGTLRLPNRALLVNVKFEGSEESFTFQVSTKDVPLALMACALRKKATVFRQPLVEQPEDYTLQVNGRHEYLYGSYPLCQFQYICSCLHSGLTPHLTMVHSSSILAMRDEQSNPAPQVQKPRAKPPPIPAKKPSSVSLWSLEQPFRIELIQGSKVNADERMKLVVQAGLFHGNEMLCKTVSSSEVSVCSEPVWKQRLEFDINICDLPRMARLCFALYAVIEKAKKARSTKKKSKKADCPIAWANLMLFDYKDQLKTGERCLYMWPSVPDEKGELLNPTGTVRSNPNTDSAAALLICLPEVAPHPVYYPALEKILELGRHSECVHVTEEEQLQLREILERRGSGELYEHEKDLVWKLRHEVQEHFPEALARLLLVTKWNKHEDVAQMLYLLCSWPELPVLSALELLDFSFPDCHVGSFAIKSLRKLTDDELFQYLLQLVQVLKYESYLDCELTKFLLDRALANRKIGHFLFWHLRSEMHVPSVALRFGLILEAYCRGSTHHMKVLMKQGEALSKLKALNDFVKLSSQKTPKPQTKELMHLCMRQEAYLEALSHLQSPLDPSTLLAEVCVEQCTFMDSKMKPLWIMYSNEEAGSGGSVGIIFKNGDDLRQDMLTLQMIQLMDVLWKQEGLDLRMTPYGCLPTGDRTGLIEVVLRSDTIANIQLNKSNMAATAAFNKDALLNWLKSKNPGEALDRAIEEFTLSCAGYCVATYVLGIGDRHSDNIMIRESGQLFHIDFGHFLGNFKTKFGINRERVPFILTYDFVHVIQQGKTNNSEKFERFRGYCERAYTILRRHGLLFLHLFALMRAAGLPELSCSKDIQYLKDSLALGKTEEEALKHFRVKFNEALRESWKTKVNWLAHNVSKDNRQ
Sequence of P110 δ/Pi3K δ (P27986 whole entry partner, canonical isoform): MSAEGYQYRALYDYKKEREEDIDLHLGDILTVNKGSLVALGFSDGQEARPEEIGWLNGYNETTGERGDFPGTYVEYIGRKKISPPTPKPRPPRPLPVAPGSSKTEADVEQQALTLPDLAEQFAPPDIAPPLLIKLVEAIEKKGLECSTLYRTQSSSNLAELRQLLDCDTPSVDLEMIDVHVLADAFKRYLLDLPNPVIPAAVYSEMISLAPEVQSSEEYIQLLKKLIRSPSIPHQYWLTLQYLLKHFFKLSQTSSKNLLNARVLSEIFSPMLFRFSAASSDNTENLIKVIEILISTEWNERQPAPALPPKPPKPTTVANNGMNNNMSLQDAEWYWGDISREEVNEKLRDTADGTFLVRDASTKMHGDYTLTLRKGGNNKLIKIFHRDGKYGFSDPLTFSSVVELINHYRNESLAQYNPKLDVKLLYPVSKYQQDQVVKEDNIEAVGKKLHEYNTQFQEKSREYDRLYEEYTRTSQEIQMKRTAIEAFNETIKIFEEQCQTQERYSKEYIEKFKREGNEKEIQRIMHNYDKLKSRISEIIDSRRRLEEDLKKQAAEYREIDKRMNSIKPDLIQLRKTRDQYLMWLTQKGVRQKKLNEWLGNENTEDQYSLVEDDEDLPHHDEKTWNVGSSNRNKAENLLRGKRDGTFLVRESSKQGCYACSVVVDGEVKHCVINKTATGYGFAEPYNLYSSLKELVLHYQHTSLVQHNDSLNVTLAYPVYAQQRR

In a further data set the target is P110β (Homo sapiens, UniProt P42338). Nature of the data set: Fluorescent (HTRF) determination of PI3K enzyme activity, β isoform. Format: biochemical. The text has this: (§1) Assay 1: Fluorescent determination of PI3Kinase Kinase enzyme activity
Sequence of P110β (P42338 whole entry, canonical isoform): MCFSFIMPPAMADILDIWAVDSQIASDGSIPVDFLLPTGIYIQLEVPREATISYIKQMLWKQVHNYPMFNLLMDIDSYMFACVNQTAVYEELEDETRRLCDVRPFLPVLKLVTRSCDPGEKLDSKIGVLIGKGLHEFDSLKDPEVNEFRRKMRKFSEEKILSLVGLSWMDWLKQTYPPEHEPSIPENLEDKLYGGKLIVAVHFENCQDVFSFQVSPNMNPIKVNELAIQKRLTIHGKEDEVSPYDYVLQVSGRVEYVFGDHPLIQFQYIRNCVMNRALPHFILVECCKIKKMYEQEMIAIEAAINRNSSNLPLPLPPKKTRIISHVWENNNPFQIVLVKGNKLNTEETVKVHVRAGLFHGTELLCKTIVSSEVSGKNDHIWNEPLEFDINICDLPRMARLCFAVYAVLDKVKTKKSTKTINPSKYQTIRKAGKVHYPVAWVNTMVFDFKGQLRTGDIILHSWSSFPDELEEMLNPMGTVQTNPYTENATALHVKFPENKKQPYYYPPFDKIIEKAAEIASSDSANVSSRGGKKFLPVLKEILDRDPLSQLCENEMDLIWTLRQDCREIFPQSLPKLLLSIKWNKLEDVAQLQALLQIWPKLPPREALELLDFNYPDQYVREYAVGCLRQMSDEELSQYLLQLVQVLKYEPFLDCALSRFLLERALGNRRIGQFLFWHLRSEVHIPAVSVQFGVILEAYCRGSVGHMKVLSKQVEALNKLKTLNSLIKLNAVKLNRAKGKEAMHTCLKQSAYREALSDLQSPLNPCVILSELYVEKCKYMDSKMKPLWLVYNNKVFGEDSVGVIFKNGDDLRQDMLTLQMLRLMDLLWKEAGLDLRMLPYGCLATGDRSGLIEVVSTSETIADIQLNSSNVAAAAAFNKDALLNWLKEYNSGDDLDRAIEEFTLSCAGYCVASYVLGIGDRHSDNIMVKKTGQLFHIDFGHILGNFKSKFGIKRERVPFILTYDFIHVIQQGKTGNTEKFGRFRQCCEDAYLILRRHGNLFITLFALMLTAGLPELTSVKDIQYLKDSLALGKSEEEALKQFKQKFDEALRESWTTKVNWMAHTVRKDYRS
Sequence of P110β (P27986 whole entry partner, canonical isoform): as the sequence (P27986 whole entry partner, canonical isoform) above
(§2) Phosphoinositide 3 kinases (PI3K) belong to a class of lipid kinases that play a critical role in the regulation of several key cellular processes. The PI3K are capable of phosphorylating the 3-hydroxy position of phosphoinositols thereby generating second messengers involved in downstream signalling events. The homogenous time resolved fluorescence (HTRF) assay allows detection of 3,4,5-triphosphate (PIP3) formed as a result of phosphorylation of phosphotidylinositol 4,5-biphosphate (PIP2) by PI3K isoforms such as α, β, γ or δ.
(§3) PI3K isoform activity for α, β, γ or δ was determined using a PI3K human HTRF™ Assay Kit (Millipore, Billerica, Mass.) with modifications. All incubations were carried out at room temperature. Briefly, 0.5 μl of 40× inhibitor (in 100% DMSO) or 100% DMSO were added to each well of a 384-well black plate (Greiner Bio-One, Monroe, N.C.) containing 14.5 μl 1× reaction buffer/PIP2 (10 mM MgCl2, 5 mM DTT, 1.38 μM PIP2) mix with or without enzyme and incubated for 10 min. After the initial incubation, 5 μl/well of 400 μM ATP was added and incubated for an additional 30 minutes. Reaction was terminated by adding 5 μl/well stop solution (Millipore, Billerica, Mass.). Five microliters of detection mix (Millipore, Billerica, Mass.) were then added to each well and was incubated for 6-18 h in the dark. HRTF ratio was measured on a microplate reader (BMG Labtech., Germany) at an excitation wavelength of 337 nm and emission wavelengths of 665 and 620 nm with an integration time of […]. Data were analyzed using Graphpad Prism (Graphpad software; San Diego Calif.) for IC50 determination. Percent inhibition was calculated based on the values for the blank and enzyme controls. The results are provided below in Table 2 & 3.

Another data set addresses P110γ (Homo sapiens, UniProt P48736). Nature of the data set: Fluorescent (HTRF) determination of PI3K enzyme activity, γ isoform. Format: biochemical.
Excerpt: as §1, §2, §3

A further data set addresses P110α (Homo sapiens, UniProt P42336). The experiment in a line: Fluorescent (HTRF) determination of PI3K enzyme activity, α isoform. Format: biochemical.
Excerpt: as §1, §2, §3
A general note: TR-FRET usually uses a lanthanide donor and a delayed reading to cut background.

[1] abbreviates: read-out: P110 δ/ Pi3K δ IC 50 nM.
The mark [2] stands for this setting: read-out: P110 δ/Pi3K δ IC 50 nM.

Molecules are shown by their SMILES. Read-outs that look alike come from different tables or passages of the source.

Sequence of P110α (P42336 whole entry, canonical isoform): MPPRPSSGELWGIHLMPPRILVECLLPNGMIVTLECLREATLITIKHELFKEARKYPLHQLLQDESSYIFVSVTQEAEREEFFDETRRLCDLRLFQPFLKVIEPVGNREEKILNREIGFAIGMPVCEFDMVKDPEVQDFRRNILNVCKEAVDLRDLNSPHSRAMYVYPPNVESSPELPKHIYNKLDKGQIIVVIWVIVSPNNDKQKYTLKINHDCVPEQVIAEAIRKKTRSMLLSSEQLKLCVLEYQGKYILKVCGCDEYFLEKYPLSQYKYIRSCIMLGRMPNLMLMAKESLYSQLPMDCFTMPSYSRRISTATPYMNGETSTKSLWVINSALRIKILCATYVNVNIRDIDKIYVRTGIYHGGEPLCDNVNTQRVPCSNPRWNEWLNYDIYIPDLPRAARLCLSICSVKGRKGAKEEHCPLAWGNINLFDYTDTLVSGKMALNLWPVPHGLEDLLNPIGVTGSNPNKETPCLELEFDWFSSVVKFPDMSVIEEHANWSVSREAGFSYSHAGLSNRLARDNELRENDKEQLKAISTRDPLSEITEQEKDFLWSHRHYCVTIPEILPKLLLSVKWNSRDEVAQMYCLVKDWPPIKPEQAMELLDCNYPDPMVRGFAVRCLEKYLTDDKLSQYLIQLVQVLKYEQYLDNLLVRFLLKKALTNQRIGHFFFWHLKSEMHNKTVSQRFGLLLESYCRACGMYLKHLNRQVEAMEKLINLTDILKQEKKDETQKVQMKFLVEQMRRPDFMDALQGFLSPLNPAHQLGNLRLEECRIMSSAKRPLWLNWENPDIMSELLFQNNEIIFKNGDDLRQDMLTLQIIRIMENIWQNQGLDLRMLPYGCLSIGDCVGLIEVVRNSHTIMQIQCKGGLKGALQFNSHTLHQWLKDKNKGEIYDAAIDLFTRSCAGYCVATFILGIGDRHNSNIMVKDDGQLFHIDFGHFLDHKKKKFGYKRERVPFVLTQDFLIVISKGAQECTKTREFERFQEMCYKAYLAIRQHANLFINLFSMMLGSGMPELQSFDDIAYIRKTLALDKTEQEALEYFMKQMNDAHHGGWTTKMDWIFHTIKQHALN
Sequence of P110α (P27986 whole entry partner, canonical isoform): as the sequence (P27986 whole entry partner, canonical isoform) above
Sequence of P110γ (P48736 whole entry, canonical isoform): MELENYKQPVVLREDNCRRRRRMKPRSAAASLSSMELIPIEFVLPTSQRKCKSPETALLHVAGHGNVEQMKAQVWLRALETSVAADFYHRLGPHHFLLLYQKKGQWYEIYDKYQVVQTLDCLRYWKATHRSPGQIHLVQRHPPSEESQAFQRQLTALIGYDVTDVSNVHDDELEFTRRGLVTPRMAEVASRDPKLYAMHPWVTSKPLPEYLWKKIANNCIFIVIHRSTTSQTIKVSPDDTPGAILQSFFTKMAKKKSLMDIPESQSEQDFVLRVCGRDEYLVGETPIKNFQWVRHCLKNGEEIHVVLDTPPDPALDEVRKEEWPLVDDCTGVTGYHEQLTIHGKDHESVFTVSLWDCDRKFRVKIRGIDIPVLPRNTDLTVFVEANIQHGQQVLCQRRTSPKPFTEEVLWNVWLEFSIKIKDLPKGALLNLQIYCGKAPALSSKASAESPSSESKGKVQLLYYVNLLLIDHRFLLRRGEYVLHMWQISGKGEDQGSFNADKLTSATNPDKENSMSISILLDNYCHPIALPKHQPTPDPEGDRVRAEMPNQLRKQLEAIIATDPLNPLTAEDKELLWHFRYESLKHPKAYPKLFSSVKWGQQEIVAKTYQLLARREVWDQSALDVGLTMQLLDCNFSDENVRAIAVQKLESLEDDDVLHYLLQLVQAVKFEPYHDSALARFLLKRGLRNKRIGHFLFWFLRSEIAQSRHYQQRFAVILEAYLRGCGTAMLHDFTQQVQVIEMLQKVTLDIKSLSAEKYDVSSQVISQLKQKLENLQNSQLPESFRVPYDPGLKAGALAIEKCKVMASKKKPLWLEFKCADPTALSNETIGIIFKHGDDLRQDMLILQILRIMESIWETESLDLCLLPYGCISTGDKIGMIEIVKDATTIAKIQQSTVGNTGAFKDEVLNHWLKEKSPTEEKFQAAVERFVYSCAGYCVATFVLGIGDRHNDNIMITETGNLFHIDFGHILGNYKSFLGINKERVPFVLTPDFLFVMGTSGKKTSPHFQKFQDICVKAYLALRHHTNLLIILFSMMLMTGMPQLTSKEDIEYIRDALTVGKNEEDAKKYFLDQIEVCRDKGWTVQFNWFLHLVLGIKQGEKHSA

As a reminder, the inhibition is the change of the read-out against control, counted positive when it falls. The term melting point denotes the temperature, or range, at which the solid turns liquid. With `Cc1n[nH]c2cc(-c3nn(C(C)c4oc5ccc(F)cc5c(=O)c4-c4ccccc4)c4ncnc(N)c34)ccc12` (stereo not shown) [Example 105, 2-(1-(4-amino-3-(3-methyl-1H-indazol-6-yl)-1H-pyrazolo[3,4-d]pyrimidin-1-yl)ethyl)-6-fluoro-3-phenyl-4H-chromen-4-one], the melting point was 253 to 255 °C. Also, at P110 δ/Pi3K δ, the inhibition lay within 50 to 100%. Moreover, the IC50 on P110 δ/Pi3K δ (setting [1]) is less than 250 nM. Further, the inhibition at 1 µM against P110β fell in the range of 50 to 100%. On P110γ, this molecule registered an inhibition at 1 µM of 50 to 100%.

Consider `C[C@@H](Nc1ncnc2[nH]cnc12)c1oc2ccc(F)cc2c(=O)c1-c1cccc(F)c1` [Example 124, (R)-2-(1-(9H-purin-6-ylamino)ethyl)-6-fluoro-3-(3-fluorophenyl)-4H-chromen-4-one], for which the melting point was in the range of 194 to 197 °C. Moreover, at P110 δ/Pi3K δ, the inhibition was less than 50%. Further, at P110α, the inhibition at 1 µM was less than 25%. This molecule showed an inhibition at 1 µM at P110β of less than 25%.

In the case of `C[C@H](Nc1ncnc2[nH]cnc12)c1oc2ccc(F)cc2c(=O)c1-c1cccc(F)c1` [Example 74, (S)-2-(1-(9H-purin-6-ylamino)ethyl)-6-fluoro-3-(3-fluorophenyl)-4H-chromen-4-one], the melting point was in the range of 203 to 206 °C. Besides, the inhibition at 1 µM at P110 δ/Pi3K δ was 50 to 100%. In addition, the IC50 at P110 δ/Pi3K δ (setting [2]) is less than 250 nM. This molecule came in with an inhibition at 1 µM against P110β of 25 to 50%. Moreover, on P110γ, the inhibition at 1 µM was 25 to 50%.

Molecule `CCc1n[nH]c2cc(-c3nn(C(C)c4oc5ccccc5c(=O)c4-c4cccc(F)c4)c4ncnc(N)c34)ccc12` (stereo not shown) [Example 110, 2-(1-(4-amino-3-(3-ethyl-1H-indazol-6-yl)-1H-pyrazolo[3,4-d]pyrimidin-1-yl)ethyl)-3-(3-fluorophenyl)-4H-chromen-4-one] yielded a melting point of 270 to 273 °C. The molecule further came in with an inhibition against P110 δ/Pi3K δ of 50 to 100%. The inhibition at 1 µM against P110β was less than 25%. At P110γ, this molecule gave an inhibition at 1 µM of 50 to 100%.

In turn, `Nc1ncnc2c1c(-c1cn[nH]c1)nn2Cc1oc2ccc(F)cc2c(=O)c1-c1ccccc1` [Example 125, 2-((4-amino-3-(1H-pyrazol-4-yl)-1H-pyrazolo[3,4-d]pyrimidin-1-yl)methyl)-6-fluoro-3-phenyl-4H-chromen-4-one] registered a melting point of 211 to 214 °C. The inhibition against P110 δ/Pi3K δ is less than 50%. In addition, the inhibition at 1 µM at P110α was less than 25%. The molecule further had an inhibition at 1 µM against P110β of less than 25%.

Regarding `C[C@H](Nc1ncnc2[nH]cnc12)c1oc2ccc(F)cc2c(=O)c1-c1ccccc1` [Example 57, (S)-2-(1-(9H-purin-6-ylamino)ethyl)-6-fluoro-3-phenyl-4H-chromen-4-one], the melting point lay within 196 to 198 °C. Also, the inhibition at 1 µM at P110 δ/Pi3K δ was 50 to 100%. The IC50 at P110 δ/Pi3K δ (setting [2]) was less than 250 nM. The molecule also came in with an inhibition at 1 µM on P110α of less than 25%. At P110β, this molecule registered an inhibition at 1 µM of 25 to 50%.

`CC(c1oc2ccccc2c(=O)c1-c1cccc(F)c1)n1nc(-c2cccc(N(C)C)c2)c2c(N)ncnc21` (stereo not shown) [Example 142, 2-(1-(4-amino-3-(3-(dimethylamino)phenyl)-1H-pyrazolo[3,4-d]pyrimidin-1-yl)ethyl)-3-(3-fluorophenyl)-4H-chromen-4-one] showed a melting point of 218 to 220 °C. Also, the inhibition on P110 δ/Pi3K δ was less than 50%. The inhibition at 1 µM against P110β was 25 to 50%. On P110γ, this molecule came in with an inhibition at 1 µM of less than 25%.

Molecule `CC(c1oc2ccccc2c(=O)c1-c1cccc(F)c1)n1nc(-c2ccc(O)c(F)c2)c2c(N)ncnc21` (stereo not shown) [Example 85, 2-(1-(4-amino-3-(3-fluoro-4-hydroxyphenyl)-1H-pyrazolo[3,4-d]pyrimidin-1-yl)ethyl)-3-(3-fluorophenyl)-4H-chromen-4-one] yielded a melting point of 244 to 247 °C. The same molecule displayed an inhibition against P110 δ/Pi3K δ of 50 to 100%. The inhibition at 1 µM against P110α was in the range of 25 to 50%. This molecule also returned an inhibition at 1 µM on P110β of 25 to 50%.

Regarding `COc1ccc(-c2nn(C(C)c3oc4ccccc4c(=O)c3-c3cccc(F)c3)c3ncnc(N)c23)cc1F` (stereo not shown) [Example 84, 2-(1-(4-amino-3-(3-fluoro-4-methoxyphenyl)-1H-pyrazolo[3,4-d]pyrimidin-1-yl)ethyl)-3-(3-fluorophenyl)-4H-chromen-4-one], the melting point is 222 to 224 °C. This molecule gave an inhibition against P110 δ/Pi3K δ of 50 to 100%. On P110 δ/Pi3K δ (setting [1]), the IC50 is less than 250 nM. This molecule also gave an inhibition at 1 µM on P110α of less than 25%. This molecule yielded an inhibition at 1 µM on P110β of less than 25%.

`COc1ncc(-c2nn(C(C)c3oc4ccccc4c(=O)c3-c3cccc(F)c3)c3ncnc(N)c23)cn1` (stereo not shown) [Example 112, 2-(1-(4-amino-3-(2-methoxypyrimidin-5-yl)-1H-pyrazolo[3,4-d]pyrimidin-1-yl)ethyl)-3-(3-fluorophenyl)-4H-chromen-4-one] showed a melting point of 224 to 227 °C. The inhibition on P110 δ/Pi3K δ was less than 50%. In addition, the inhibition at 1 µM at P110α was less than 25%. The molecule also had an inhibition at 1 µM on P110β of less than 25%.

Molecule `CCC(c1oc2ccccc2c(=O)c1-c1cccc(F)c1)n1nc(-c2ccc3c(C)n[nH]c3c2)c2c(N)ncnc21` (stereo not shown) [Example 116, 2-(1-(4-amino-3-(3-methyl-1H-indazol-6-yl)-1H-pyrazolo[3,4-d]pyrimidin-1-yl)propyl)-3-(3-fluorophenyl)-4H-chromen-4-one] showed a melting point of 268 to 270 °C. Moreover, the inhibition against P110 δ/Pi3K δ was in the range of 50 to 100%. In addition, at P110α, the inhibition at 1 µM is less than 25%. The molecule further displayed an inhibition at 1 µM on P110β of less than 25%.

For `CC(c1oc2ccccc2c(=O)c1-c1ccccc1)n1cnc2c(N)ncnc21` (stereo not shown) [Example 23, 2-(1-(6-Amino-9H-purin-9-yl)ethyl)-3-phenyl-4H-chromen-4-one], the melting point was in the range of 254 to 257 °C. This molecule also registered an inhibition at 1 µM at P110 δ/Pi3K δ of 50 to 100%. Also, the IC50 at P110 δ/Pi3K δ (setting [2]) was less than 250 nM. The molecule further showed an inhibition at 1 µM against P110α of less than 25%. Moreover, the inhibition at 1 µM against P110β was less than 25%.

In turn, `Nc1ncnc2c1ncn2Cc1oc2ccc(F)cc2c(=O)c1-c1ccccc1` [Example 118, 2-((6-amino-9H-purin-9-yl)methyl)-6-fluoro-3-phenyl-4H-chromen-4-one] gave a melting point of 207 to 209 °C. At P110 δ/Pi3K δ, the inhibition was less than 50%. This molecule showed an inhibition at 1 µM against P110α of less than 25%. In addition, the inhibition at 1 µM on P110β is 25 to 50%.

In turn, `CC(c1oc2ccccc2c(=O)c1-c1cccc(F)c1)n1nc(-c2ccc3c(c2)OCCO3)c2c(N)ncnc21` (stereo not shown) [Example 133, 2-(1-(4-amino-3-(2,3-dihydrobenzo[b][1,4]dioxin-6-yl)-1H-pyrazolo[3,4-d]pyrimidin-1-yl)ethyl)-3-(3-fluorophenyl)-4H-chromen-4-one] had a melting point of 225 to 226 °C. Further, the inhibition at P110 δ/Pi3K δ was less than 50%. At P110α, this molecule displayed an inhibition at 1 µM of less than 25%. The molecule further yielded an inhibition at 1 µM on P110β of 50 to 100%.

In turn, `Nc1ncnc2c1ncn2Cc1oc2ccc(Br)cc2c(=O)c1-c1ccccc1` [Example 1, 2-[(6-Amino-9H-purin-9-yl)methyl]-6-bromo-3-phenyl-4H-chromen-4-one] had a melting point of 207 to 209 °C. The same molecule showed an inhibition at 1 µM at P110 δ/Pi3K δ of less than 50%. Also, at P110 δ/Pi3K δ (setting [2]), the IC50 is less than 250 nM. At P110α, this molecule showed an inhibition at 1 µM of less than 25%. The inhibition at 1 µM at P110β was less than 25%.

Molecule `Nc1ncnc2c1ncn2Cc1oc2ccc(F)cc2c(=O)c1-c1cccc(F)c1` [Example 119, 2-((6-amino-9H-purin-9-yl)methyl)-6-fluoro-3-(3-fluorophenyl)-4H-chromen-4-one] yielded a melting point of 180 to 183 °C. The molecule further yielded an inhibition against P110 δ/Pi3K δ of less than 50%. This molecule also gave an inhibition at 1 µM against P110α of less than 25%. The same molecule gave an inhibition at 1 µM against P110β of less than 25%.

Take `Cc1nc2cc(-c3nn(C(C)c4oc5ccccc5c(=O)c4-c4cccc(F)c4)c4ncnc(N)c34)ccc2[nH]1` (stereo not shown) [Example 115, 2-(1-(4-amino-3-(2-methyl-1H-benzo[d]imidazol-5-yl)-1H-pyrazolo[3,4-d]pyrimidin-1-yl)ethyl)-3-(3-fluorophenyl)-4H-chromen-4-one]: the melting point was in the range of 154 to 156 °C. The same molecule gave an inhibition against P110 δ/Pi3K δ of 50 to 100%. Besides, the IC50 at P110 δ/Pi3K δ (setting [1]) was less than 250 nM. The inhibition at 1 µM against P110α is less than 25%. Besides, the inhibition at 1 µM against P110β is less than 25%.

Turning to `COc1cc(OC)cc(-c2nn(C(C)c3oc4ccccc4c(=O)c3-c3cccc(F)c3)c3ncnc(N)c23)c1` (stereo not shown) [Example 130, 2-(1-(4-amino-3-(3,5-dimethoxyphenyl)-1H-pyrazolo[3,4-d]pyrimidin-1-yl)ethyl)-3-(3-fluorophenyl)-4H-chromen-4-one], the melting point lay in the range of 224 to 227 °C. Also, the inhibition against P110 δ/Pi3K δ was less than 50%. Besides, on P110α, the inhibition at 1 µM is less than 25%. The inhibition at 1 µM against P110β was less than 25%.
